Source: PubChem BioAssay (NCI)
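Assay format: 96-well plates, 48-hour exposure. The concentration for 50% growth inhibition is given as GI50. TGI denotes the concentration required for complete inhibition of growth.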

Tests used:
Test in all cases: NCI-60 cell line screen, 48 h
A549 NSCLC = system: A549 NSCLC
HT29 colon = system: HT29 colon
M14 melanoma = system: M14 melanoma
MOLT-4 leukemia = system: MOLT-4 leukemia
RPMI-8226 leukemia = system: RPMI-8226 leukemia
TK-10 renal = system: TK-10 renal
BT-549 breast = system: BT-549 breast
MCF7 breast = system: MCF7 breast
MDA-MB-435 = system: MDA-MB-435
PC-3 prostate = system: PC-3 prostate

| Structure (SMILES) | GI50 (A549 NSCLC) [µM] | TGI (A549 NSCLC) [µM] | GI50 (HT29 colon) [µM] | TGI (HT29 colon) [µM] | GI50 (M14 melanoma) [µM] | TGI (M14 melanoma) [µM] | GI50 (MOLT-4 leukemia) [µM] | TGI (MOLT-4 leukemia) [µM] | GI50 (RPMI-8226 leukemia) [µM] | TGI (RPMI-8226 leukemia) [µM] | GI50 (TK-10 renal) [µM] | TGI (TK-10 renal) [µM] | TGI (BT-549 breast) [µM] | TGI (MCF7 breast) [µM] | TGI (MDA-MB-435) [µM] | TGI (PC-3 prostate) [µM] | GI50 (BT-549 breast) [µM] | GI50 (MCF7 breast) [µM] | GI50 (PC-3 prostate) [µM] | GI50 (MDA-MB-435) [µM] |
| --- | --- | --- | --- | --- | --- | --- | --- | --- | --- | --- | --- | --- | --- | --- | --- | --- | --- | --- | --- | --- |
| N.N.N.N.O=NN1CCCCCC1(P(=O)([O-])[O-])P(=O)([O-])[O-].[Pt+4].[Pt+4] | > 100 | > 100 | > 100 | > 100 | > 100 | > 100 | > 100 | > 100 | > 100 | > 100 | > 100 | > 100 |  |  |  |  |  |  |  |  |
| C=CCCCn1ccc2ccccc21 |  | > 100 |  | > 100 |  | > 100 |  | > 100 |  | > 100 |  | > 100 |  |  |  |  |  |  |  |  |
| Cc1ccc(-n2c3nc(=O)n(C)c(=O)c-3nc3ccccc32)cc1 |  | 30.2 |  | 19.1 |  | 32.7 |  | 41.2 |  | 54.6 |  | > 100 |  |  |  |  |  |  |  |  |
| COc1cc2c(c(OC)c1O)-c1ccc(OC)c(=O)cc1[C@@H](NC(=O)C(F)(F)F)CC2 |  | > 100 |  |  |  | > 100 |  | > 100 |  | 0.0699 |  | > 100 | > 100 | > 100 | 0.055 | 0.588 |  |  |  |  |
| CC1CN(c2ccc(Cl)cc2)CC(C)(C)OC(=O)O1 (configuration not stated) |  | > 100 |  | > 100 |  | > 100 |  |  |  | > 100 |  | > 100 |  |  |  |  |  |  |  |  |
| COCc1c(CO)cnc(C)c1OC1OC(CO)C(O)C(O)C1O (configuration not stated) |  | > 100 |  | > 100 |  | > 100 |  | > 100 |  | > 100 |  |  |  |  |  |  |  |  |  |  |
| COc1ccc(CCN2CCCN3C2=Nc2ccccc2S3(=O)=O)cc1 | 0.8 | > 100 | 0.323 | 17.5 | 0.322 | > 100 | 0.464 | > 100 | 0.563 | 53.5 | 91 | > 100 | 92.4 | > 100 |  | > 100 | 0.923 | 0.329 | 0.529 |  |
| O=c1[nH]cc(/C=N\Nc2ccccc2)c(=O)[nH]1 |  | > 100 |  | > 100 |  | > 100 |  |  |  | > 100 |  | > 100 | > 100 | > 100 | > 100 | > 100 |  |  |  |  |
| CCN(CC)CC.CCOc1ccc(NC(=O)N=C=[N-])cc1.[CH-]1CCCCC1.[CH-]1CCCCC1.[CH-]1CCCCC1.[Cl-].[Sn+4] | 0.0331 | 0.107 | 0.022 | 0.0467 | 0.0264 | 0.0727 | 0.0281 | 0.233 | 0.0199 | 0.064 | 0.0458 | 0.116 | 0.292 |  | 0.0296 | 0.21 | 0.149 |  | 0.0596 | 0.0151 |
| COc1ccc2c(c1O)C(=O)C(CCC(=O)O)CC2 (configuration not stated) |  | > 100 |  | > 100 |  | > 100 |  | > 100 |  | > 100 |  | > 100 |  |  |  |  |  |  |  |  |
| COc1cc(OC)c2ssc3c(OC)cc(OC)c4ssc1c2-c43 |  | > 100 |  | > 100 |  | > 100 |  | > 100 |  |  |  | > 100 |  |  |  |  |  |  |  |  |
| CCCOc1ccc(-c2nc(-c3ccc(N=Cc4ccc(N(CCOS(C)(=O)=O)CCOS(C)(=O)=O)cc4C)cc3)cs2)cc1 |  | 34.2 |  | > 73.9 |  | > 86.4 |  | 66.6 |  | > 100 |  | 41.1 |  | > 100 | > 100 | 77.9 |  |  |  |  |
| O=C(N/N=C/c1ccccc1O)C(O)(c1ccccc1)c1ccccc1 | 9.67 | > 100 | 4.46 | > 100 | 50.5 | > 100 | 4.46 | > 100 | > 100 | > 100 | > 100 | > 100 | > 100 |  | > 100 | > 100 | > 100 |  | > 100 | > 100 |
| COc1cc(Br)c(CC2(C#N)c3ccccc3C3C(N2C(=O)c2ccccc2)C3(Cl)Cl)cc1OC (configuration not stated) |  | > 65.5 |  | > 65.5 |  | > 65.5 |  |  |  | > 65.5 |  | > 65.5 |  |  |  |  |  |  |  |  |
| CCOC(=O)Cc1nc2ccccc2s1 |  | 54.2 |  | 37.1 |  | 31 |  | 65.9 |  |  |  | 55 |  |  |  |  |  |  |  |  |
| CC(/C=C/C(=O)c1sc(-n2nc(-c3ccccc3)cc2-c2ccccc2)nc1C)=C\c1ccccc1 |  | > 100 |  |  | > 100 | > 100 |  | > 100 |  | > 100 |  |  |  |  |  |  |  |  |  |  |
| COC(=O)NC1(NC(=O)OC)NC(=O)c2cc(OC)c(OC)cc2N1 |  | > 100 |  |  |  | > 100 |  |  |  | > 100 |  | > 100 |  | > 100 | 13.7 | > 100 |  |  |  |  |
| COc1c2c3ccccc3nc-2n(C)c2ccccc12 | 14.3 | > 100 | 4.75 | > 100 |  |  | 4.7 | > 100 | 6.04 | 24.4 | 11.7 | 58.5 | 43.5 | 33.1 | 38.3 | 20.5 | 18.8 | 4.31 | 5.25 | 13.9 |
| O=Nc1ccc(O)c2ccccc12 | 2.14 | 4.79 | 1.86 | 5.71 | 1.83 | 3.41 |  |  | 2.4 | 7.58 | 2.24 | 4.66 | 3.35 | 4.31 | 1.1 | 6.99 | 1.93 | 1.81 | 1.88 | 0.33 |
| CO/[N+]([O-])=C\C(=O)N/C=C/C(=O)O |  |  |  |  |  | > 100 |  | > 100 |  | > 100 |  |  | > 100 | > 100 | > 100 | > 100 |  |  |  |  |
| O=C(O)C1=C(C(=O)Nc2ccccc2)C2C=CC1C2 (configuration not stated) |  | > 100 |  | > 100 |  | > 100 |  | > 100 |  | > 100 |  | > 100 |  |  |  |  |  |  |  |  |
